The subject of test [1] is HGC-27. Put plainly: Cytotoxicity against human HGC27 cells after 48 hrs by MTT assay. Format: functional, cell-based. Particulars: HGC-27, 48 h. (Formazan colour is commonly taken as a measure of viable cells.)
The test system of test [2] is HEK293. The experiment in a line: Cytotoxicity against HEK293 cells after 48 hrs by MTT assay. In kind it is cell-based. Particulars: Homo sapiens, HEK293, 48 h.
Test [3] relates to B16. The experiment in a line: Cytotoxicity against mouse B16 cells after 48 hrs by MTT assay. In kind it is functional, cell-based. The note with it: B16, 48 h.
Test [4] has as its system HEK293. The experiment in a line: Cell cycle arrest in HEK293 cells assessed as accumulation at S phase at 0.5 uM after 24 hrs by flow cytometry. Format: functional, Homo sapiens.
Test [5] has as its system HEK293. The experiment in a line: Cell cycle arrest in HEK293 cells assessed as accumulation at G1 phase at 0.5 […] after 24 hrs by flow cytometry. In kind it is functional, Homo sapiens. Background: A flow cytometer gives signals particle by particle.
For test [6], the system named is HEK293. The experiment in a line: Cell cycle arrest in HEK293 cells assessed as accumulation at G2/M phase at 0.5 uM after 24 hrs by flow cytometry. Format: functional, Homo sapiens.
For test [7], the system named is HEK293. Put plainly: Cell cycle arrest in HEK293 cells assessed as accumulation at S phase at 5 nM after 24 hrs by flow cytometry. In kind it is functional, Homo sapiens.
Test [8] has as its system HEK293. Put plainly: Cell cycle arrest in HEK293 cells assessed as accumulation at S phase at 10 uM after 24 hrs by flow cytometry. In kind it is functional, Homo sapiens.
Test [9] deals with HEK293. Put plainly: Cell cycle arrest in HEK293 cells assessed as accumulation at G1 phase at 10 uM after 24 hrs by flow cytometry. Format: functional, Homo sapiens.
Test [10] concerns HEK293. Put plainly: Cell cycle arrest in HEK293 cells assessed as accumulation at G2/M phase at 5 nM after 24 hrs by flow cytometry. In kind it is functional, Homo sapiens.
Test [11] concerns HEK293. Put plainly: Cell cycle arrest in HEK293 cells assessed as accumulation at G1 phase at 2.5 uM after 24 hrs by flow cytometry. In kind it is functional, Homo sapiens.
The subject of test [12] is HEK293. The experiment in a line: Cell cycle arrest in HEK293 cells assessed as accumulation at G2/M phase at 2.5 uM after 24 hrs by flow cytometry. Format: functional, Homo sapiens.
Test [13] relates to HEK293. Put plainly: Cell cycle arrest in HEK293 cells assessed as accumulation at G1 phase at 5 nM after 24 hrs by flow cytometry. In kind it is functional, Homo sapiens.
For test [14], the system named is HEK293. Put plainly: Cell cycle arrest in HEK293 cells assessed as accumulation at G1 phase at 5 uM after 24 hrs by flow cytometry. In kind it is functional, Homo sapiens.
Test [15] relates to HEK293. The experiment in a line: Cell cycle arrest in HEK293 cells assessed as accumulation at S phase at 5 uM after 24 hrs by flow cytometry. Format: functional, Homo sapiens.
Test [16] has as its system HEK293. The experiment in a line: Cell cycle arrest in HEK293 cells assessed as accumulation at S phase at 2.5 uM after 24 hrs by flow cytometry. In kind it is functional, Homo sapiens.
The test system of test [17] is HEK293. The experiment in a line: Cell cycle arrest in HEK293 cells assessed as accumulation at G2/M phase at 5 uM after 24 hrs by flow cytometry. In kind it is functional, Homo sapiens.
In test [18] the test system is HEK293. The experiment in a line: Cell cycle arrest in HEK293 cells assessed as accumulation at G2/M phase at 10 uM after 24 hrs by flow cytometry. In kind it is functional, Homo sapiens.

Where only a bound is given, the exact number is not on record here.

`CC1=C(C(=O)O)[C@@H]2CC(=O)c3cc(CC(C)O)c(O[C@@H]4O[C@H](CO)[C@@H](O)[C@H](O)[C@H]4O)c(O)c3[C@@]2(C)CC1` (some centres undefined): the IC50 in [1], in test [2] and in test [3] was greater than 10 µM throughout.
`C[C@H](CO)c1cc2c(c(O)c1O[C@@H]1O[C@H](CO)[C@@H](O)[C@H](O)[C@H]1O)[C@@]1(C)CCC[C@](C)(CO[C@@H]3O[C@H](CO)[C@@H](O)[C@H](O)[C@H]3O)[C@@H]1CC2`: the IC50 in [1], in test [2] and in [3] was greater than 10 µM each time.
In the case of `C[C@H](CO)c1cc2c(c(O)c1O[C@@H]1O[C@H](CO)[C@@H](O)[C@H](O)[C@H]1O)[C@@]1(C)CC[C@H](O)C(C)(C)[C@@H]1CC2`, the IC50 in [1], in test [2] and in test [3] was greater than 10 µM in each case.
Turning to `C[C@H](CO)c1cc2c(c(O)c1O[C@@H]1O[C@H](CO)[C@@H](O)[C@H](O)[C@H]1O)[C@@]1(C)CCC[C@](C)(C(=O)O[C@@H]3O[C@H](CO)[C@@H](O)[C@H](O)[C@H]3O)[C@@H]1CC2`, the IC50 in [1], in [2] and in test [3] was greater than 10 µM in each case.
Turning to `CC1=C(C)C2=CC(=O)c3c(c(O)c4oc(C)cc4c3O)[C@@]2(C)CC1=O`, the IC50 in test [1], in [2] and in test [3] was greater than 10 µM throughout.
In the case of `CC1=C(CO)C2=CC(=O)c3c(c(O)c4oc(C)cc4c3O)[C@@]2(C)CC1=O`, the 50% inhibitory concentration (IC50) in test [1], in test [2] and in test [3] was greater than 10 µM throughout.
As to `CC1=C(C)C2=CC(=O)c3c(O)c4c(c(O)c3[C@@]2(C)CC1)OC(C)C4` (some centres undefined), the 50% inhibitory concentration (IC50) in test [1] came to 5.3 µM; in test [2] it was 1.2 µM; in [3], 6.4 µM. The Activity in test [4] was determined as 31.01%; in [5], 45.43%; in test [6] it was 23.57%; in [7] it was 33.72%; in test [8], 42.62%; in [9], 22.5%. Further, the Activity in test [10] worked out at 16.14%; in test [11], 43.44%; in [12] it was 16.12%; in [13], 50.14%; in [14], 29.5%; in test [15], 46.58%. For the same compound, the values for the Activity in [16], in test [17] and in test [18] were 40.45%, 23.92% and 34.88%, respectively.
In the case of `C[C@H](CO)c1cc2c(c(O)c1O[C@@H]1O[C@H](CO)[C@@H](O)[C@H](O)[C@H]1O)[C@@]1(C)CC[C@H](O[C@@H]3O[C@H](CO)[C@@H](O)[C@H](O)[C@H]3O)C(C)(C)[C@@H]1CC2`, the IC50 in test [1], in test [2] and in test [3] was greater than 10 µM throughout.

One may read the IC50 as the point on the concentration scale where inhibition reaches its midpoint. Low readings indicate greater potency, high ones weaker potency.

Source of the values: ChEMBL document CHEMBL1149896, “Abietane diterpenoids from Clerodendrum bungei” (J Nat Prod, 2008).
